System: HEK293 cells
Test: Evaluation of AAV vector-producing ability by treatment with chemical substance (rAAV1 virus titer by qPCR)
Assay type: cell-based, human
Conditions: HEK293 cells producing rAAV1, serum-free E-MEM with chemical substance at various concentrations, 3 days culture, virus titer (v.g.) vs untreated control
Experimental: The cells of the immortalized cell line derived from the human embryonic kidney (HEK293 cells) purchased from ATCC (American Type Culture Collection) were cultured in E-MEM supplemented with 10% fetal bovine serum, penicillin, and streptomycin at 37° C. in the presence of 5% CO2.
The recombinant adeno-associated virus 1 (rAAV1) was prepared with the use of 3 types of plasmids: pAAV-ZsGreen1 (TaKaRa Bio), pAAV2/1, and pHelper. A mixture of 3 types of plasmids for preparation of rAAV1 was adjusted to bring the mixing ratio of DNA to Polyethylenimine Max (PEI:Polysciences) (DNA:PEI) to 1:2 in OPTI-MEM, and the reaction was allowed to proceed at room temperature for 15 minutes. […]
Genome DNA of rAAV1 was extracted to measure the virus titer. […] The virus titer was measured by real-time PCR in triplicate. qPCR was performed using primers targeting Zs-Green 1. […]
In the present example, effects of enhancing production of AAV vectors achieved with the use of chemical substances different from the chemical substances tested in Example 1 were measured in the same manner as in Example 1.
In the present comparative example, effects of enhancing production of AAV vectors were measured in the same manner as in Example 1, except for the use of ascorbic acid (2.5, 5, or 10 μg/ml) disclosed in the examples of WO 2021/138387. […]

For `O=C1O[C@H]([C@@H](O)CO)C(O)=C1O` [ascorbic acid], which “effects of enhancing the amount of production of AAV vectors” value is on record?
Its value is “no significant differences were observed”.

— patent US20250163456A1, “AGENT FOR ENHANCING PRODUCTION OF VIRAL VECTOR AND METHOD FOR PRODUCING VIRAL VECTOR” (priority 2022, published 2025)
